# In PMC6918687, “Pharmacological inhibition of TAK1, with the selective inhibitor takinib, alleviates clinical manifestation of arthritis in CIA mice” (Arthritis Research & Therapy, 2019):
# How the values were obtained:
# RA-FLS cells [1] = assay: NF-κB signaling protein array, TNF-stimulated RA-FLS cells; assay type: cell-based, human; settings: TNF 30 ng/mL 24 h
# Experimental: (§1) Rheumatoid arthritis fibroblast-like synoviocytes (RA-FLS) cells were prepared from surgical synovial samples at the University of Michigan as previously described. Cells were isolated from 4 individual patients (3 female, 1 male) and passaged no more than 2 times before use. Cells were cultured in CRML media, 10% FBS, 1% penicillin-streptomycin (PS), and 1% glutamate.
# (§2) Briefly, 10^6 cells were plated and either no treatment (naïve) or pretreated with takinib (10 μM) or vehicle (DMSO) for 30 min prior to stimulation with TNF (30 ng/mL) for 30 min at 37 °C in 5% CO2 for phospho-kinase assay (R&D Systems). NF-κB and cytokine assays were performed as previously described; however, cells were incubated for 24 h post-TNF (30 ng/mL) or LPS (10 ng/mL) stimulation.
# RA-FLS cells [2] = assay: Cell viability assay (Cell Titer Glo 2.0) in RA-FLS cells; assay type: cell-based
# Experimental: RA-FLS cells were cultured and treated as previously described. Briefly, cells were plated at 80% confluency ~ 10^4 in 96-well plates and treated with either takinib at various concentrations or takinib + TNF (30 ng/mL) for 24 or 48 h and compared to vehicle-treated samples. Cell death was quantified using Cell Titer Glo 2.0 (Promega) according to the manufacturer’s protocol.
# RA-FLS cells [3] = assay: Cytokine/chemokine proteome array, LPS-stimulated RA-FLS cells; assay type: cell-based, human; settings: takinib 10 μM
# Experimental: as §1
# […] Twenty-four hours after treatment, supernatant was added to Human Cytokine proteome array (R&D Systems). Cytokine kit was conducted in accordance with manufacturer protocol. Chemiluminescence was used to visualize protein quantities.
# RA-FLS cells [4] = assay: Phospho-kinase proteome array, TNF-stimulated RA-FLS cells; assay type: cell-based, human; settings: takinib 10 μM, TNF 30 ng/mL 30 min
# Experimental: as §1, §2
# RA-FLS cells [5] = assay: Cytokine/chemokine proteome array, TNF-stimulated RA-FLS cells; assay type: cell-based, human; settings: takinib 10 μM, TNF 30 ng/mL 24 h
# Experimental: as §1
# RA-FLS cells were activated by addition of LPS 10 ng/mL in the presence or absence of 10 μM takinib or DMSO. Twenty-four hours after treatment, supernatant was added to Human Cytokine proteome array (R&D Systems). Cytokine kit was conducted in accordance with manufacturer protocol. Chemiluminescence was used to visualize protein quantities.
# as §2
compound,measurement,setting,value
CCCn1/c(=N/C(=O)c2cccc(C(N)=O)c2)[nH]c2ccccc21 [takinib],"ASC expression, array signal, Mean","RA-FLS cells [1]; takinib 10 μM, n=4",29.77
same,"BCL10 expression, array signal, Mean","RA-FLS cells [1]; takinib 10 μM, n=4",15.76
same,"CARD6 expression, array signal, Mean","RA-FLS cells [1]; takinib 10 μM, n=4",15.29
same,"CD40/TNFRSFS expression, array signal, Mean","RA-FLS cells [1]; takinib 10 μM, n=4",23.956
same,"FADD/MORT1 expression, array signal, Mean","RA-FLS cells [1]; takinib 10 μM, n=4",36.45
same,"Fas/TNFRSF6/CD95 expression, array signal, Mean","RA-FLS cells [1]; takinib 10 μM, n=4",172.1241
same,"IKK1/IKKα/CHUK expression, array signal, Mean","RA-FLS cells [1]; takinib 10 μM, n=4",55.68
same,"IKK2/IKKβ expression, array signal, Mean","RA-FLS cells [1]; takinib 10 μM, n=4",112.6481
same,"IKKγ/NEMO expression, array signal, Mean","RA-FLS cells [1]; takinib 10 μM, n=4",107.307
same,"IL-1 RI expression, array signal, Mean","RA-FLS cells [1]; takinib 10 μM, n=4",21.68
same,"IL-17 RA expression, array signal, Mean","RA-FLS cells [1]; takinib 10 μM, n=4",19.1835
same,"IL-18 Rα expression, array signal, Mean","RA-FLS cells [1]; takinib 10 μM, n=4",17.5855
same,"IRAK1 expression, array signal, Mean","RA-FLS cells [1]; takinib 10 μM, n=4",26.78
same,"IRF5 expression, array signal, Mean","RA-FLS cells [1]; takinib 10 μM, n=4",16.411
same,"IRF8 expression, array signal, Mean","RA-FLS cells [1]; takinib 10 μM, n=4",17.251
same,"IkBα expression, array signal, Mean","RA-FLS cells [1]; takinib 10 μM, n=4",33.4
same,"IkBε expression, array signal, Mean","RA-FLS cells [1]; takinib 10 μM, n=4",178.592
same,"JNK1/2 expression, array signal, Mean","RA-FLS cells [1]; takinib 10 μM, n=4",19.76
same,"JNK2 expression, array signal, Mean","RA-FLS cells [1]; takinib 10 μM, n=4",17.3675
same,"LTBR/TNFRSF3 expression, array signal, Mean","RA-FLS cells [1]; takinib 10 μM, n=4",22.136
same,"MYD88 expression, array signal, Mean","RA-FLS cells [1]; takinib 10 μM, n=4",36.28
same,"Metadherin/AEG-1 expression, array signal, Mean","RA-FLS cells [1]; takinib 10 μM, n=4",31.01
same,"NFκB1 expression, array signal, Mean","RA-FLS cells [1]; takinib 10 μM, n=4",66.143
same,"NFκB2 expression, array signal, Mean","RA-FLS cells [1]; takinib 10 μM, n=4",136.3483
same,"NGF R/TNFRSF16 expression, array signal, Mean","RA-FLS cells [1]; takinib 10 μM, n=4",16.68
same,"RelA/p65 (pS529) array signal, Mean","RA-FLS cells [1]; takinib 10 μM, n=4",41.57
same,"RelA/p65 expression, array signal, Mean","RA-FLS cells [1]; takinib 10 μM, n=4",55.81
same,"SHARPIN expression, array signal, Mean","RA-FLS cells [1]; takinib 10 μM, n=4",17.06
same,"SOCS6 expression, array signal, Mean","RA-FLS cells [1]; takinib 10 μM, n=4",64.37
same,"STAT1 (pY701) array signal, Mean","RA-FLS cells [1]; takinib 10 μM, n=4",15.5275
same,"STAT1p91 expression, array signal, Mean","RA-FLS cells [1]; takinib 10 μM, n=4",116.4024
same,"STAT2 (pY689) array signal, Mean","RA-FLS cells [1]; takinib 10 μM, n=4",15.96
same,"STAT2 expression, array signal, Mean","RA-FLS cells [1]; takinib 10 μM, n=4",148.6364
same,"STING/TMEM173 expression, array signal, Mean","RA-FLS cells [1]; takinib 10 μM, n=4",106.8409
same,"TLR2 expression, array signal, Mean","RA-FLS cells [1]; takinib 10 μM, n=4",15.725
same,"TNF RI/TNFRSF1A expression, array signal, Mean","RA-FLS cells [1]; takinib 10 μM, n=4",14.7
same,"TNF RII/TNFRSF1B expression, array signal, Mean","RA-FLS cells [1]; takinib 10 μM, n=4",18.3335
same,"TRAF2 expression, array signal, Mean","RA-FLS cells [1]; takinib 10 μM, n=4",17.884
same,"TRAIL R1/DR4 expression, array signal, Mean","RA-FLS cells [1]; takinib 10 μM, n=4",21.6
same,"TRAIL R2/DR5 expression, array signal, Mean","RA-FLS cells [1]; takinib 10 μM, n=4",91.34
same,"c-Rel expression, array signal, Mean","RA-FLS cells [1]; takinib 10 μM, n=4",16.52
same,"clAP1/BIRC2 expression, array signal, Mean","RA-FLS cells [1]; takinib 10 μM, n=4",25.47
same,"clAP2/BIRC3 expression, array signal, Mean","RA-FLS cells [1]; takinib 10 μM, n=4",18.82
same,"p53 (pS46) array signal, Mean","RA-FLS cells [1]; takinib 10 μM, n=4",14.94
same,"p53 expression, array signal, Mean","RA-FLS cells [1]; takinib 10 μM, n=4",17.85
same,number of NF-κB signaling proteins significantly altered,"RA-FLS cells [1]; takinib, out of 45 profiled",20
same,cell death vs vehicle control,"RA-FLS cells [2]; 10 μM takinib alone, 48 h, p < 0.002",significant amount of cell death
same,cytotoxicity in the presence of TNF,"RA-FLS cells [2]; takinib at varying doses + TNF 30 ng/mL, 24 and 48 h",Minimal cytotoxicity
same,MIF protein level,RA-FLS cells [3],No significant changes
same,Serpin E1 protein level,RA-FLS cells [3],No significant changes
same,CXCL1 level,RA-FLS cells [3]; p < 0.0003,significantly downregulated
same,CCL2 level,RA-FLS cells [3]; p < 0.0009,significantly downregulated
same,reduction of IL-8,RA-FLS cells [3]; p < 0.006,57%
same,reduction of IL-6,RA-FLS cells [3]; p < 0.055,33%
same,"AMPKα1 phosphorylation, array signal, Mean",RA-FLS cells [4]; n=4,111.9564
same,"AMPKα2 phosphorylation, array signal, Mean",RA-FLS cells [4]; n=4,187.6195
same,"Akt 1/2/3 (pS473) array signal, Mean",RA-FLS cells [4]; n=4,39.51
same,"Akt 1/2/3 (pT308) array signal, Mean",RA-FLS cells [4]; n=4,122.7503
same,"CREB phosphorylation, array signal, Mean",RA-FLS cells [4]; n=4,232.3464
same,"Chk-2 phosphorylation, array signal, Mean",RA-FLS cells [4]; n=4,86.85
same,"EGF R phosphorylation, array signal, Mean",RA-FLS cells [4]; n=4,60.59
same,"ERK1/2 phosphorylation, array signal, Mean",RA-FLS cells [4]; n=4,95.02
same,"FAK phosphorylation, array signal, Mean",RA-FLS cells [4]; n=4,142.7814
same,"Fgr phosphorylation, array signal, Mean",RA-FLS cells [4]; n=4,41.73
same,"Fyn phosphorylation, array signal, Mean",RA-FLS cells [4]; n=4,78.9
same,"GSK-3α/β phosphorylation, array signal, Mean",RA-FLS cells [4]; n=4,191.6206
same,"HSP27 phosphorylation, array signal, Mean",RA-FLS cells [4]; n=4,202.916
same,"HSP60 array signal, Mean",RA-FLS cells [4]; n=4,40.313
same,"Hck phosphorylation, array signal, Mean",RA-FLS cells [4]; n=4,119.1771
same,"JNK 1/2/3 phosphorylation, array signal, Mean",RA-FLS cells [4]; n=4,100.6526
same,"Lck phosphorylation, array signal, Mean",RA-FLS cells [4]; n=4,44.393
same,"Lyn phosphorylation, array signal, Mean",RA-FLS cells [4]; n=4,69.34
same,"MSK1/2 phosphorylation, array signal, Mean",RA-FLS cells [4]; n=4,239.7188
same,"PDGF Rβ phosphorylation, array signal, Mean",RA-FLS cells [4]; n=4,50.4425
same,"PLC-γ1 phosphorylation, array signal, Mean",RA-FLS cells [4]; n=4,34.4325
same,"PRAS40 phosphorylation, array signal, Mean",RA-FLS cells [4]; n=4,244.5596
same,"PYK2 phosphorylation, array signal, Mean",RA-FLS cells [4]; n=4,87.75
same,"RSK1/2/3 phosphorylation, array signal, Mean",RA-FLS cells [4]; n=4,168.3928
same,"STAT2 phosphorylation, array signal, Mean",RA-FLS cells [4]; n=4,200.5311
same,"STAT3 (pS727) array signal, Mean",RA-FLS cells [4]; n=4,95.82
same,"STAT3 (pY705) array signal, Mean",RA-FLS cells [4]; n=4,85.93
same,"STAT5a phosphorylation, array signal, Mean",RA-FLS cells [4]; n=4,99.7
same,"STAT5a/b phosphorylation, array signal, Mean",RA-FLS cells [4]; n=4,146.267
same,"STAT5b phosphorylation, array signal, Mean",RA-FLS cells [4]; n=4,154.004
same,"STAT66 phosphorylation, array signal, Mean",RA-FLS cells [4]; n=4,147.8809
same,"Src phosphorylation, array signal, Mean",RA-FLS cells [4]; n=4,176.3574
same,"TOR phosphorylation, array signal, Mean",RA-FLS cells [4]; n=4,129.6068
same,"WNK1 phosphorylation, array signal, Mean",RA-FLS cells [4]; n=4,218.9865
same,"Yes phosphorylation, array signal, Mean",RA-FLS cells [4]; n=4,124.3601
same,"c-Jun phosphorylation, array signal, Mean",RA-FLS cells [4]; n=4,196.6019
same,"eNOS phosphorylation, array signal, Mean",RA-FLS cells [4]; n=4,41.6005
same,"p27 phosphorylation, array signal, Mean",RA-FLS cells [4]; n=4,40.56
same,"p38α phosphorylation, array signal, Mean",RA-FLS cells [4]; n=4,59.41
same,"p53 (pS15) array signal, Mean",RA-FLS cells [4]; n=4,47.48
same,"p53 (pS46) array signal, Mean",RA-FLS cells [4]; n=4,126.377
same,"p53 (pS392) array signal, Mean",RA-FLS cells [4]; n=4,83.6435
same,"p70 S6 Kinase (T389) array signal, Mean",RA-FLS cells [4]; n=4,78.65
same,"p70 S6 Kinase (site not given) array signal, Mean",RA-FLS cells [4]; n=4,110.3643
same,"β-Catenin array signal, Mean",RA-FLS cells [4]; n=4,57.16
same,number of human kinases with significantly reduced phosphorylation,RA-FLS cells [4]; 45 phospho-kinase proteins profiled,21
same,GROα (CXCL1) secretion,RA-FLS cells [5]; p < 0.002,reduced
same,ICAM secretion,RA-FLS cells [5]; p < 0.03,reduced
same,G-CSF secretion,RA-FLS cells [5]; p < 0.04,reduced
same,MIP-1α/MIP-1β secretion,RA-FLS cells [5]; p = 0.11,modest change
